Assay results: patent publication US7846917B2, “18-Methyl-19-norandrost-4-ene 17, 17-spiro ether (18-methyl-19-nor-20-spirox-4-en-3-one), and pharmaceutical products comprising the same” (Bayer Schering Pharma AG, priority 2006, dated 2010)

What was measured:
[1] = target: T1, mineralocorticoid receptor (Rattus norvegicus, UniProt P22199); experiment: mineralocorticoid receptor binding, rat kidney homogenate; details: for MR [KF]: 3H-aldosterone = 1; for MR [RBA]: 3H-aldosterone = 100
T1 construct: mineralocorticoid receptor from rat kidney homogenate; from tissue; host or cells: rat kidney homogenate
T1 sequence (P22199 1-981): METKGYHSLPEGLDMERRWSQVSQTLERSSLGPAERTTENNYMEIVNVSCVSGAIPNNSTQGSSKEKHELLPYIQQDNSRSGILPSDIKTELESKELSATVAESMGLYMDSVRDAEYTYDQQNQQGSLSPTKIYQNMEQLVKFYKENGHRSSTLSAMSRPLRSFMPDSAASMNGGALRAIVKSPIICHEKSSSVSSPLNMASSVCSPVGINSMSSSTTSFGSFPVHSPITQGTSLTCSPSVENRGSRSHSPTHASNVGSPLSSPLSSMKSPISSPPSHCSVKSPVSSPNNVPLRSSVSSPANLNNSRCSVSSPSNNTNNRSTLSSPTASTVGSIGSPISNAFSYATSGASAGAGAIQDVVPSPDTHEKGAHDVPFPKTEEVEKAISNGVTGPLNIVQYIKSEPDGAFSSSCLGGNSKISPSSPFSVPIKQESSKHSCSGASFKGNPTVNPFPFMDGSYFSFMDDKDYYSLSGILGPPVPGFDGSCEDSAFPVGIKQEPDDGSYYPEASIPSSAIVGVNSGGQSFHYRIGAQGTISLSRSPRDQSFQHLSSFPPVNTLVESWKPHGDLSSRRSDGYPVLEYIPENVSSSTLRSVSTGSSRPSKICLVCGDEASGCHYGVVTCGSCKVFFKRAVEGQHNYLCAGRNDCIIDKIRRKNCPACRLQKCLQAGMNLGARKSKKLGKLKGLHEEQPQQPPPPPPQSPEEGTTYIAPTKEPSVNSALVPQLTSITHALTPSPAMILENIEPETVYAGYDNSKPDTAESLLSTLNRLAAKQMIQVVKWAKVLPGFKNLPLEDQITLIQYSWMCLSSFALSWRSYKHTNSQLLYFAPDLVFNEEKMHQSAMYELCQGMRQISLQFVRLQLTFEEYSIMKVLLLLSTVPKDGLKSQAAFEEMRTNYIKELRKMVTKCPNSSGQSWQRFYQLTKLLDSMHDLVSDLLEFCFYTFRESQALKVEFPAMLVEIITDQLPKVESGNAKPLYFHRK
From the text: (§1) This object is achieved by the provision of the 18-methyl-15β,16β-methylene-19-nor-20-spirox-4-en-3-ones of the general formula I described herein.

[2] = target: T2, progesterone receptor (Oryctolagus cuniculus, UniProt P06186); experiment: progesterone receptor binding assay using cytosol from rabbit uterus homogenate; details: for PR [KF]: 3H-progesterone = 1; for PR [RBA]: 3H-progesterone = 100
T2 construct: cytosol from rabbit uterus homogenate; from tissue; host or cells: rabbit uterus (cytosol of homogenate)
T2 sequence (P06186 1-930): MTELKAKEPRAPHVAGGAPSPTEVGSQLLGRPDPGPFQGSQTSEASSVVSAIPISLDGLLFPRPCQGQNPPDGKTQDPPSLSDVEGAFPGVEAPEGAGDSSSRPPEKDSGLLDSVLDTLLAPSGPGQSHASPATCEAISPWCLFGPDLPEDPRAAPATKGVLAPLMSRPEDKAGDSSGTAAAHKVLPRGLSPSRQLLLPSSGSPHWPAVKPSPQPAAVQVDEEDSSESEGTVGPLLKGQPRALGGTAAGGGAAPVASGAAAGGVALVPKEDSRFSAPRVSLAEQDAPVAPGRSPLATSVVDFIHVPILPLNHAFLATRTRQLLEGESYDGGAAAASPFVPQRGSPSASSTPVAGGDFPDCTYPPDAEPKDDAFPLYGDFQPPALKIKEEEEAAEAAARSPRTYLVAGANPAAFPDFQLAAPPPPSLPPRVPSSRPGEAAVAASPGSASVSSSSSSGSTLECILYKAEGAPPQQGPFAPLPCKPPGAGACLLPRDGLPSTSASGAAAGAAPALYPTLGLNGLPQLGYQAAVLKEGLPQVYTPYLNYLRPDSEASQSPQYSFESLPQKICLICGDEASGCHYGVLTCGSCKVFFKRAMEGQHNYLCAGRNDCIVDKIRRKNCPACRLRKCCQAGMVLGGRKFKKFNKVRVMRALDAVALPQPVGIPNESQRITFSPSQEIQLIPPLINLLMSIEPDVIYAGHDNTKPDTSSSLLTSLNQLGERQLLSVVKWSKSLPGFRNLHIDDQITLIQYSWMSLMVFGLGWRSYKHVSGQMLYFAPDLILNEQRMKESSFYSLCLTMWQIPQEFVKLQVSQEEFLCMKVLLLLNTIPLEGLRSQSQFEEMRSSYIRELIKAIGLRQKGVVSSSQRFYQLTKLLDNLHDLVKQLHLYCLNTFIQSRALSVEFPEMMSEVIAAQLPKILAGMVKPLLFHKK
From the text: as §1

MR [KF] [1] | MR [RBA] [1] | PR [KF] [2] | PR [RBA] [2] | SMILES
7.8 | 13 | 3.45 | 29 | CCC12CCC3C4CCC(=O)C(C)=C4C4CC4C3C1C1CC1C21CCCO1 (stereo not drawn) [Example 17, 4,18-Dimethyl-6β,7β,15β,16β-dimethylene-19-nor-20-spirox-4-en-3-one]
0.6 | 167 | 1.13 | 88 | CC[C@]12CC[C@H]3[C@H]([C@@H]1[C@@H]1C[C@@H]1[C@@]21CCCO1)[C@H](C)CC1=CC(=O)CC[C@@H]13 [Example 6, 7α,18-Dimethyl-15β,16β-methylene-19-nor-20-spirox-4-en-3-one]
7.6 | 13 | 3.245 | 31 | CC[C@]12CC[C@H]3[C@@H](CCC4=C(C)C(=O)CC[C@@H]43)[C@@H]1[C@@H]1C[C@@H]1[C@@]21CCCO1 [Example 14, 4,18-Dimethyl-150,16β-methylene-19-nor-20-spirox-4-en-3-one]
88 | 1 | 3.01 | 33 | CC[C@]12CC[C@H]3[C@@H]([C@H]4C[C@H]4C4=C(Cl)C(=O)CC[C@@H]43)[C@@H]1[C@@H]1C[C@@H]1[C@@]21CCCO1 [Example 18, 4-Chloro-18-methyl-6β,7β,15β,16β-dimethylene-19-nor-20-spirox-4-en-3-one]
0.5 | 200 | 1.08 | 93 | CCC12CCC3C4CCC(=O)C=C4CC(C)C3C1C1CC1C21CCCO1 (stereo not drawn) [Example 7, 7β,18-Dimethyl-15β,16β-methylene-19-nor-20-spirox-4-en-3-one]
0.7 | 143 | 2.355 | 42 | CC[C@]12CC[C@H]3[C@H]([C@@H]1[C@@H]1C[C@@H]1[C@@]21CCCO1)[C@H](C1CC1)CC1=CC(=O)CC[C@@H]13 [Example 12, 7α-Cyclopropyl-18-methyl-15β,16β-methylene-19-nor-20-spirox-4-en-3-one]
42 | 2 | 4.295 | 23 | CCC1CC2=CC(=O)CCC2C2CCC3(CC)C(C4CC4C34CCCO4)C12 (stereo not drawn) [Example 9, 7β-Ethyl-18-methyl-15β,16β-methylene-19-nor-20-spirox-4-en-3-one]
0.3 | 333 | 2.5 | 40 | C[C@]12CCC(=O)C=C1[C@@H]1C[C@@H]1[C@H]1[C@@H]3[C@@H]4C[C@@H]4[C@@]4(CCC(=O)O4)[C@@]3(C)CC[C@@H]12 [DRSP, 6β,7β-15β,16β-dimethylene-3-oxo-17-pregn-4-ene-21,17β-carbolactone, reference compound]
0.4 | 250 | 2.34 | 43 | CC[C@]12CCC3C4CCC(=O)C=C4C4CC4C3C1[C@@H]1C[C@@H]1[C@@]21CCCO1 (stereo partly drawn) [Example 2, 18-Methyl-6α,7α,15β,16β-dimethylene-19-nor-20-spirox-4-en-3-one]
